Structures can show the parent of a compound that is named as a salt. Where two headings read alike, the source gives them in different places.
How the values were obtained:
JNK2 = biological target: T1, JNK2 (Homo sapiens, UniProt P45984); test: JNK2 protein kinase assay; assay type: biochemical; conditions: for remaining activity at 10 µM: 10 μM compound; for residual kinase activity JNK2: 1 μm compound; for remaining activity at 1 µM: 1 μM compound
T1 construct: All protein kinases were of human origin and encoded full length proteins, unless indicated otherwise; made in house
Description: (§1) All protein kinases were of human origin and encoded full length proteins, unless indicated otherwise. They were either expressed as glutathione S-transferase (GST) fusion proteins in Escherichia Coli or as hexahistidine (His6)-tagged proteins in insect Sf21 cells. GST fusion proteins were purified by affinity chromatography on glutathione-Sepharose, and His6-tagged proteins on nickel/nitriloacetate-agarose. The procedures for expressing some of the protein kinases used herein have been detailed previously.^8,9 The following sections outline the DNA vectors synthesised and the procedures used to express and purifying protein kinases that have not been reported previously.
(§2) In order to produce activated forms of Aurora B and Aurora C, insect Sf21 cells were incubated for 1 h with the protein phosphatase inhibitor okadaic acid (50 nM). JNK isoforms were activated with MKK4 and MKK7, MNK2 with p38α MAPkinase; PKBα, PKBβ, with PDK1, and ERK1 with MKK1. To activate CDK2, bacterial pellets expressing cyclin A2 and CDK2 were mixed together, lyse and purified on glutathione Sepharose. The GST-tags were removed by cleavage with PreScission protease and the CDK2-cyclin A2 complex purified by chromatography on SP-Sepharose. It was then activated with CAK1/CDK7 followed by chromatography on nickel-nitrilotriacetate agarose to remove CAK1/CDK7, which binds to this column by virtue of its C-terminal His6 tag. All the other protein kinases were active as expressed.
(§3) All assays (25.5 μl) were carried out at room temperature (21° C.) and were linear with respect to time and enzyme concentration under the conditions used. Assays were performed for 30 min using Multidrop Micro reagent dispensers (Thermo Electron Corporation, Waltham, Mass. 02454, USA) in a 96-well format. The concentration of magnesium acetate in the assays was 10 mM and the [γ-33P] ATP (800 cpm/pmol) was used at 5, 20 or 50 μM as indicated, in order to be at or below the Km for ATP for each enzyme. Protein kinases assayed at 5 μM ATP were: —ERK1, ERK8, PKBα, MARK3, Aurora C. Protein kinases assayed at 20 μM ATP were: —JNK1, PDK1, CHK1, CHK2, CDK2 and Aurora B. Protein kinases assayed at 50 μM ATP were: —MNK2, IKKepsilon and TBK1.
(§4) The assays were initiated with MgATP, stopped by addition of 5 μl of 0.5 M orthophosphoric acid and spotted on to P81 filterplates using a unifilter harvester (PerkinElmer, Boston, Mass. 02118, USA). The IC50 values of inhibitors were determined after carrying out assays at 10 different concentrations of each compound.
(§5) Unless stated otherwise, enzymes were diluted in 50 mM Tris/HCl pH 7.5, 0.1 mM EGTA, 1 mg/ml BSA, 0.1% (v/v) 2-mercaptoethanol and assayed in 50 mM Tris/HCl pH 7.5, 0.1 mM EGTA, 0.1% (v/v) 2-mercaptoethanol.

PKBa = biological target: T2, PKBa (Homo sapiens, UniProt P31749, S473D); test: PKBa protein kinase assay; assay type: biochemical; conditions: for remaining activity at 10 µM: 10 μM compound
T2 construct: protein kinase Bα[118-480][S473D]; His6; made in house; host or cells: insect Sf21 cells
Description: as §1
The following kinases were expressed in Sf21 cells: Aurora B and Aurora C, extra-cellular signal-regulated kinase 8 (ERK8), microtubule affinity regulating kinase 3 (MARK3), protein kinase Bα[118-480][S473D], protein kinase Bβ (PKBβ[120-481][S474D], 3-phosphoinositide-dependent protein kinase-1 [52-556]
as §2, §3, §4, §5

GSK3b = biological target: T3, GSK3b (Homo sapiens, UniProt P49841); test: GSK3b protein kinase assay; assay type: biochemical; conditions: for remaining activity at 10 µM: 10 μM compound; for residual kinase activity GSK3b: 1 μm compound; for remaining activity at 1 µM: 1 μM compound
T3 construct: All protein kinases were of human origin and encoded full length proteins, unless indicated otherwise; made in house
Description: as §1, §3, §4, §5

ROCK 2 = ROCK 2 protein kinase assay; assay type: biochemical, human; conditions: for residual kinase activity: ROCK 2
Description: as §1, §3, §4, §5

PAK6 = biological target: T4, PAK6 (Homo sapiens, UniProt Q9NQU5); test: PAK6 protein kinase assay; assay type: biochemical; conditions: for remaining activity at 10 µM: 10 μM compound; for residual kinase activity PAK6: 1 μm compound; for remaining activity at 1 µM: 1 μM compound
T4 construct: All protein kinases were of human origin and encoded full length proteins, unless indicated otherwise; made in house
Description: as §1, §3, §4, §5

p38s MAPK = biological target: T5, p38s MAPK (Homo sapiens, UniProt O15264); test: p38s MAPK protein kinase assay; assay type: biochemical; conditions: for remaining activity at 10 µM: 10 μM compound; for residual kinase activity p38s MAPK: 1 μm compound; for remaining activity at 1 µM: 1 μM compound
T5 construct: All protein kinases were of human origin and encoded full length proteins, unless indicated otherwise; made in house
T5 sequence (O15264 1-365): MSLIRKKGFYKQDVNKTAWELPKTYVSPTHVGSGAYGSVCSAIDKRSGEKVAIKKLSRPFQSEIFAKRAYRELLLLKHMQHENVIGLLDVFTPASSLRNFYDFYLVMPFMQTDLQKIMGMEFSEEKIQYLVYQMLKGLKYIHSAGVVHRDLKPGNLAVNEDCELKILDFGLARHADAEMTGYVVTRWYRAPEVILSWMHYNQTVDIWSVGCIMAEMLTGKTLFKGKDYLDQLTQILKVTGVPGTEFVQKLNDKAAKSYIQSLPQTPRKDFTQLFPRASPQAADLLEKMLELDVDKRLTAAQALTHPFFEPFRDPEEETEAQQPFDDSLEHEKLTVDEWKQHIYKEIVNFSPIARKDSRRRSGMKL
Description: as §1, §3, §4, §5

IR-HIS = IR-HIS protein kinase assay; assay type: biochemical, human; conditions: for residual kinase activity: IR-HIS
Description: as §1, §3, §4, §5

[1] = read-out: residual kinase activity JNK2
[2] = read-out: residual kinase activity PKBa
[3] = 1 μm compound, read-out: residual kinase activity PKBa
[4] = read-out: residual kinase activity GSK3b
[5] = read-out: residual kinase activity PAK6
[6] = read-out: residual kinase activity p38s MAPK
[7] = JNK2, read-out: residual kinase activity
[8] = PKBa, 1 μM compound, 5 μM ATP, read-out: residual kinase activity
[9] = PKBa, 5 μM ATP, read-out: residual kinase activity
[10] = GSK3b, read-out: residual kinase activity
[11] = PAK6, read-out: residual kinase activity
[12] = p38s MAPK, read-out: residual kinase activity

T3 sequence (P49841 whole entry): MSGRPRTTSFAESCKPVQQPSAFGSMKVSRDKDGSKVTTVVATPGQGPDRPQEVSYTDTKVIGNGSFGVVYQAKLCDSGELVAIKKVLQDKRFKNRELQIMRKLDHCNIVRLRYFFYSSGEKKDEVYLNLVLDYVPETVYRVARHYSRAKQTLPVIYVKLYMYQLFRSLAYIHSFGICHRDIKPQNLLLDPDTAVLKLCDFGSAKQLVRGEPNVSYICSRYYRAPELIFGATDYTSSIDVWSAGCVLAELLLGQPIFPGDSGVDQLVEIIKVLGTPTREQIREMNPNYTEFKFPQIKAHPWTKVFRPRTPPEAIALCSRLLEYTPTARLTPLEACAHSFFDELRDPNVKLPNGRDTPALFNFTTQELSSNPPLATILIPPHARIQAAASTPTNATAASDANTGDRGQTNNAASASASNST
T4 sequence (Q9NQU5 whole entry): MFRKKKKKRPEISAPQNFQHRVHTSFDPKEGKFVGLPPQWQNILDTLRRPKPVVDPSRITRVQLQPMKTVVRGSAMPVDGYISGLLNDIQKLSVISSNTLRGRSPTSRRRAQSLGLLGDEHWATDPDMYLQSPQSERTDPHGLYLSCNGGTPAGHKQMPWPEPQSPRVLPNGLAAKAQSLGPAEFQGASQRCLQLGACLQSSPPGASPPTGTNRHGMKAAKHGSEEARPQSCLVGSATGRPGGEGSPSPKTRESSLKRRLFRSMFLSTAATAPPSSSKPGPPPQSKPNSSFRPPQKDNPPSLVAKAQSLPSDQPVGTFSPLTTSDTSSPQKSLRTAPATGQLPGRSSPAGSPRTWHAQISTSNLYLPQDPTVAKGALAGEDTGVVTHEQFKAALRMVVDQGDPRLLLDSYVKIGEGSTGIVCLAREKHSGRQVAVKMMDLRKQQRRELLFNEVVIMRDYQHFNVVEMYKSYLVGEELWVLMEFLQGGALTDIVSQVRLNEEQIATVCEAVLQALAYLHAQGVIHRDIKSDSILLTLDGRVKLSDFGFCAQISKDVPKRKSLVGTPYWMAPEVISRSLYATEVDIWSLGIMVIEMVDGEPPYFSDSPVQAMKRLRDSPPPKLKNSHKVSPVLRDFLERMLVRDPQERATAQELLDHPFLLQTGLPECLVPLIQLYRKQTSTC
T2 sequence (P31749 118-480 S473D): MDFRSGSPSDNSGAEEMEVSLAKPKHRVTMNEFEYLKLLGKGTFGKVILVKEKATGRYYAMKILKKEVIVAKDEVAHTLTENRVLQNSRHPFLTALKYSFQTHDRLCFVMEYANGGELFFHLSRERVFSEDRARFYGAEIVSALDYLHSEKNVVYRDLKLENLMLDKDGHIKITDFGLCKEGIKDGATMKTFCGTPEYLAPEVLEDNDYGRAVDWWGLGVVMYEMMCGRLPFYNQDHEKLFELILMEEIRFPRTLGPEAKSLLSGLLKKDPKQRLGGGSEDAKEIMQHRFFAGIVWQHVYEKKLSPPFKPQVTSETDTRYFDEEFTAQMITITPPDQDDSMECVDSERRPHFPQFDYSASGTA
T1 sequence (P45984 whole entry): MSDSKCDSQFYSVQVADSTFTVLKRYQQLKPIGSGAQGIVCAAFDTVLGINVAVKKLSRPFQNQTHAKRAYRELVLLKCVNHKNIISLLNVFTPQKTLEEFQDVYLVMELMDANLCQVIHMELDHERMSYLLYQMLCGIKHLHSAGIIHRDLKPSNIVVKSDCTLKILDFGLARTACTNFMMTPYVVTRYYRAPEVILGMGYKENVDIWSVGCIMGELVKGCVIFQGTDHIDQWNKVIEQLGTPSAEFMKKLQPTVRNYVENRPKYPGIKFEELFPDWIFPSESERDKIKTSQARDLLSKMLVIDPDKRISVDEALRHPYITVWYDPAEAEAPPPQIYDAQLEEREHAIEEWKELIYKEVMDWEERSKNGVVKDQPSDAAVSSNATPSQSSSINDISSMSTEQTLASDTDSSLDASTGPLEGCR

With `O=C(NCCCNc1nc(Nc2cccc(F)c2)ncc1Br)C1CCC1` [Compound A, cyclobutanecarboxylic acid {3-[5-bromo-2-(3-fluoro-phenylamino)-pyrimidin-4-ylamino]-propyl}-amide, reference compound] the remaining activity at 10 µM (JNK2; [1]) was 5%, the “residual kinase activity JNK2” value (JNK2) was 40% and the remaining activity at 10 µM (PKBa; [2]) was 92%. The remaining activity at 1 µM (PKBa; [3]) was 107%, the remaining activity at 10 µM (GSK3b; [4]) was 4% and the “residual kinase activity GSK3b” value (GSK3b) was 23%. The “residual kinase activity ROCK 2” value (ROCK 2; 10 μM compound) was 11%, the “residual kinase activity ROCK 2” value (ROCK 2; 1 μm compound) was 33% and the remaining activity at 10 µM (PAK6; [5]) was 14%. For the same compound, the “residual kinase activity PAK6” value (PAK6) was 45%, the remaining activity at 10 µM (p38s MAPK; [6]) was 15% and the “residual kinase activity p38s MAPK” value (p38s MAPK) was 55%. The “residual kinase activity IR-HIS” value (IR-HIS; 10 μM compound) was 69% and the “residual kinase activity IR-HIS” value (IR-HIS; 1 μm compound) was 91%.
With `O=C(NCCCNc1nc(Nc2cccc(F)c2)ncc1C1CC1)C1CCC1` [Example 23, Cyclobutanecarboxylic acid {3-[5-cyclopropyl-2-(3-fluoro-phenylamino)-pyrimidin-4-ylamino]-propyl}-amide] the remaining activity at 10 µM (JNK2; [1]) was 55%, the “residual kinase activity JNK2” value (JNK2) was 78% and the remaining activity at 1 µM (JNK2; [7]) was 78%. It also gave a remaining activity at 10 µM (JNK2; [7]) of 55%, a remaining activity at 10 µM (PKBa; [2]) of 91% and a remaining activity at 1 µM (PKBa; [3]) of 100%. For the same compound, the remaining activity at 1 µM (PKBa; [8]) was 100%, the remaining activity at 10 µM (PKBa; [9]) was 91% and the remaining activity at 10 µM (GSK3b; [4]) was 20%. The “residual kinase activity GSK3b” value (GSK3b) was 53%, the remaining activity at 1 µM (GSK3b; [10]) was 53% and the remaining activity at 10 µM (GSK3b; [10]) was 20%. For the same compound, the “residual kinase activity ROCK 2” value (ROCK 2; 10 μM compound) was 40%, the “residual kinase activity ROCK 2” value (ROCK 2; 1 μm compound) was 77% and the residual kinase activity (ROCK 2; 1 μM compound) was 77%. For the same compound, the residual kinase activity (ROCK 2; 10 μM compound) was 40%, the remaining activity at 10 µM (PAK6; [5]) was 50% and the “residual kinase activity PAK6” value (PAK6) was 82%. For the same compound, the remaining activity at 1 µM (PAK6; [11]) was 82%, the remaining activity at 10 µM (PAK6; [11]) was 50% and the remaining activity at 10 µM (p38s MAPK; [6]) was 72%. For the same compound, the “residual kinase activity p38s MAPK” value (p38s MAPK) was 77%, the remaining activity at 1 µM (p38s MAPK; [12]) was 77% and the remaining activity at 10 µM (p38s MAPK; [12]) was 72%. For the same compound, the “residual kinase activity IR-HIS” value (IR-HIS; 10 μM compound) was 86%, the “residual kinase activity IR-HIS” value (IR-HIS; 1 μm compound) was 105% and the residual kinase activity (IR-HIS; 1 μM compound) was 105%. The residual kinase activity (IR-HIS; 10 μM compound) was 86%.
`O=C(NCCCNc1nc(Nc2cccc(N3CCCC3=O)c2)ncc1C1CC1)c1cccs1` [Example 47, Thiophene-2-carboxylic acid (3-{5-cyclopropyl-2-[3-(2-oxo-pyrrolidin-1-yl)-phenylamino]-pyrimidin-4-ylamino}-propyl)-amide. Hydrochloride salt] gave a remaining activity at 1 µM (JNK2; [7]) of 98%, a remaining activity at 10 µM (JNK2; [7]) of 89% and a remaining activity at 1 µM (PKBa; [8]) of 101%. The remaining activity at 10 µM (PKBa; [9]) was 90%, the remaining activity at 1 µM (GSK3b; [10]) was 73% and the remaining activity at 10 µM (GSK3b; [10]) was 31%. It also gave a residual kinase activity (ROCK 2; 1 μM compound) of 85%, a residual kinase activity (ROCK 2; 10 μM compound) of 48% and a remaining activity at 1 µM (PAK6; [11]) of 77%. The remaining activity at 10 µM (PAK6; [11]) was 85%, the remaining activity at 1 µM (p38s MAPK; [12]) was 84% and the remaining activity at 10 µM (p38s MAPK; [12]) was 84%. For the same compound, the residual kinase activity (IR-HIS; 1 μM compound) was 105% and the residual kinase activity (IR-HIS; 10 μM compound) was 85%.
`O=C(NCCCNc1nc(Nc2cccnc2)ncc1C1CC1)c1cccs1` [Example 50, Thiophene-2-carboxylic acid {3-[5-cyclopropyl-2-(pyridin-3-ylamino)-pyrimidin-4-ylamino]-propyl}-amide] gave a remaining activity at 1 µM (JNK2; [7]) of 102%, a remaining activity at 10 µM (JNK2; [7]) of 66% and a remaining activity at 1 µM (PKBa; [8]) of 109%. The remaining activity at 10 µM (PKBa; [9]) was 97%, the remaining activity at 1 µM (GSK3b; [10]) was 52% and the remaining activity at 10 µM (GSK3b; [10]) was 19%. The residual kinase activity (ROCK 2; 1 μM compound) was 77%, the residual kinase activity (ROCK 2; 10 μM compound) was 51% and the remaining activity at 1 µM (PAK6; [11]) was 78%. For the same compound, the remaining activity at 10 µM (PAK6; [11]) was 50%, the remaining activity at 1 µM (p38s MAPK; [12]) was 79% and the remaining activity at 10 µM (p38s MAPK; [12]) was 67%. For the same compound, the residual kinase activity (IR-HIS; 1 μM compound) was 109% and the residual kinase activity (IR-HIS; 10 μM compound) was 109%.

Source: patent publication US20100056524A1, “Compound” (priority 2008, published 2010)
